pIC50: −log10 of the molar value.
These compounds were tested against Apolipoprotein L1 (Homo sapiens, UniProt O14791) (assay: Inhibition of APOL1 G1 variant in human HEK293-T-REx cells measured by Thallium assay).
Type: cell-based

Row | SMILES | pIC50
1 | CC(CO)NC(=O)O[C@H]1C[C@H](c2c(-c3ccc(F)cc3)[nH]c3c(F)cc(F)cc32)C1 (some centres not stated) | 9.60
2 | C[C@H](NC(=O)C1CC(Cc2c(-c3ccc(F)cc3)[nH]c3c(F)cc(F)cc23)C1)C(C)(C)O (some centres not stated) | < 6.00
3 | CN(C)C(=O)CNCC1CC(c2c(-c3ccc(F)cc3)[nH]c3c(F)cc(F)cc23)C1 (configuration not stated) | 9.60
4 | O=C1CC(CNC(=O)C2CC(Cc3c(-c4ccc(F)cc4)[nH]c4c(F)cc(F)cc34)C2)CN1 (configuration not stated) | < 6.00
5 | Cc1ccn(CCNC(=O)[C@H]2C[C@@H](c3c(-c4ccc(F)cc4)[nH]c4c(F)cc(F)cc43)C2)n1 | 9.60
6 | O=C(NCC1(O)CCCC1)C1CC(Cc2c(-c3ccc(F)cc3)[nH]c3c(F)cc(F)cc23)C1 (configuration not stated) | < 6.00
7 | CC(O)(CO)CNC(=O)C1CC(Cc2c(-c3ccc(F)cc3)[nH]c3c(F)cc(F)cc23)C1 (configuration not stated) | < 6.00
8 | CC(NC(=O)C1CC(Cc2c(-c3ccc(F)cc3)[nH]c3c(F)cc(F)cc23)C1)C1CCOC1 (configuration not stated) | < 6.00
9 | C[C@@H](O)CNC(=O)N[C@H]1C[C@H](c2c(-c3ccc(F)cc3)[nH]c3c(F)cc(F)cc32)C1 | < 6.00
10 | O=C1CCC(NC(=O)[C@H]2C[C@@H](c3c(-c4ccc(F)cc4)[nH]c4c(F)cc(F)cc43)C2)C(=O)N1 (some centres not stated) | < 6.00
11 | O=C(NCC1(CO)COC1)NC[C@H]1C[C@H](c2c(-c3ccc(F)cc3)[nH]c3c(F)cc(F)cc32)C1 | < 6.00
12 | C[C@H](O)[C@H](CO)NC(=O)O[C@H]1C[C@H](c2c(-c3ccc(F)cc3)[nH]c3c(F)cc(F)cc32)C1 | < 6.00
13 | C[C@@H](O)CNC(=O)[C@H]1C[C@@H](c2c(-c3ccc(F)cc3)[nH]c3c(F)cc(F)cc32)C1 | < 6.00
14 | COCC(C)NC(=O)O[C@H]1C[C@H](c2c(-c3ccc(F)cc3)[nH]c3c(F)cc(F)cc32)C1 (some centres not stated) | 9.60
15 | C[C@H](O)[C@H](CO)NC(=O)[C@H]1C[C@@H](c2c(-c3ccc(F)cc3)[nH]c3c(F)cc(F)cc32)C1 | < 6.00
16 | O=C(NCc1ncc[nH]1)C1CC(Cc2c(-c3ccc(F)cc3)[nH]c3c(F)cc(F)cc23)C1 (configuration not stated) | < 6.00
17 | O=C(CC1CC(c2c(-c3ccc(F)cc3)[nH]c3c(F)cc(F)cc23)C1)NC1(CO)CCC1 (configuration not stated) | < 6.00

Now from value to compound:

Row | pIC50 | SMILES
18 | 9.60 | C[C@@H](CO)NC(=O)[C@H]1C[C@@H](c2c(-c3ccc(F)cc3)[nH]c3c(F)cc(F)cc32)C1
19 | < 6.00 | O=C(NCc1cnn(CC(F)(F)F)c1)C1CC(Cc2c(-c3ccc(F)cc3)[nH]c3c(F)cc(F)cc23)C1 (configuration not stated)
20 | < 6.00 | CC(C)[C@@H](CO)NC(=O)O[C@H]1C[C@H](c2c(-c3ccc(F)cc3)[nH]c3c(F)cc(F)cc32)C1
21 | < 6.00 | O=C(NCCO)NC[C@H]1C[C@H](c2c(-c3ccc(F)cc3)[nH]c3c(F)cc(F)cc32)C1
22 | < 6.00 | O=C(N[C@@H](CO)C(F)(F)F)C1CC(Cc2c(-c3ccc(F)cc3)[nH]c3c(F)cc(F)cc23)C1 (some centres not stated)
23 | < 6.00 | CC(O)(CO)CNC(=O)O[C@H]1C[C@H](c2c(-c3ccc(F)cc3)[nH]c3c(F)cc(F)cc32)C1 (some centres not stated)
24 | < 6.00 | CC1(NC(=O)NC[C@H]2C[C@H](c3c(-c4ccc(F)cc4)[nH]c4c(F)cc(F)cc43)C2)CCNC1=O (some centres not stated)
25 | < 6.00 | O=C(CC1CC(c2c(-c3ccc(F)cc3)[nH]c3c(F)cc(F)cc23)C1)N[C@@H]1CCNC1=O (some centres not stated)
26 | < 6.00 | CC1(C)CC(C)(NC(=O)NC[C@H]2C[C@H](c3c(-c4ccc(F)cc4)[nH]c4c(F)cc(F)cc43)C2)C(=O)O1 (some centres not stated)
27 | < 6.00 | Cn1cc(CNC(=O)C2CC(Cc3c(-c4ccc(F)cc4)[nH]c4c(F)cc(F)cc34)C2)cn1 (configuration not stated)
28 | < 6.00 | O=C(NCC1CCOC1)O[C@H]1C[C@H](c2c(-c3ccc(F)cc3)[nH]c3c(F)cc(F)cc32)C1 (some centres not stated)
29 | < 6.00 | NC(=O)C(CC(F)(F)F)NCC1CC(c2c(-c3ccc(F)cc3)[nH]c3c(F)cc(F)cc23)C1 (configuration not stated)
30 | < 6.00 | Cn1cc(CNC(=O)O[C@H]2C[C@H](c3c(-c4ccc(F)cc4)[nH]c4c(F)cc(F)cc43)C2)nn1
31 | < 6.00 | O=C(NC1(CCO)CC1)C1CC(Cc2c(-c3ccc(F)cc3)[nH]c3c(F)cc(F)cc23)C1 (configuration not stated)
32 | 9.60 | NC(=O)C(CO)NCC1CC(c2c(-c3ccc(F)cc3)[nH]c3c(F)cc(F)cc23)C1 (configuration not stated)

From ChEMBL document CHEMBL5052856, “Inhibitors of apol1 and methods of using same” (2021)
